Measurements from ChEMBL document CHEMBL2062522, “Halogenated spirotetronates from Actinoallomurus” (J Nat Prod, 2012).
In brackets after ≈: the same amount, converted by molar mass. Activity calls are given as the source filed them. The rule behind the calls is not given here.

What was measured:
[1] = test system: Streptococcus pneumoniae; test: Antibacterial activity against Streptococcus pneumoniae BAA1402 expressing MefE efflux pump by broth microdilution method; assay type: functional
[2] = test system: Staphylococcus aureus; test: Antibacterial activity against methicillin-sensitive Staphylococcus aureus ATCC 25923 by broth microdilution method; assay type: functional
[3] = test system: Staphylococcus aureus; test: Antibacterial activity against glycopeptide-intermediate Staphylococcus aureus isolate L3798 by broth microdilution method; assay type: functional
[4] = test system: Streptococcus pneumoniae; test: Antibacterial activity against penicillin-sensitive Streptococcus pneumoniae isolate L44 by broth microdilution method
[5] = test system: Enterococcus faecium; test: Antibacterial activity against vancomycin-resistant Enterococcus faecium isolate L569 by broth microdilution method; assay type: functional
[6] = test system: Staphylococcus aureus; test: Antibacterial activity against methicillin-sensitive Staphylococcus aureus ATCC 6538P by broth microdilution method; assay type: functional
[7] = Cytotoxicity against mouse BMDM cells after 72 hrs by MTT assay; assay type: cell-based
[8] = test system: Enterococcus faecalis; test: Antibacterial activity against vancomycin-sensitive Enterococcus faecalis isolate L559 by broth microdilution method; assay type: functional
[9] = test system: Staphylococcus haemolyticus; test: Antibacterial activity against methicillin-resistant Staphylococcus haemolyticus isolate L1729 by broth microdilution method; assay type: functional
[10] = test system: Staphylococcus haemolyticus; test: Antibacterial activity against methicillin-sensitive Staphylococcus haemolyticus isolate L1730 by broth microdilution method; assay type: functional
[11] = test system: Enterococcus faecalis; test: Antibacterial activity against vancomycin-resistant Enterococcus faecalis isolate L560 by broth microdilution method; assay type: functional
[12] = test system: Streptococcus pyogenes; test: Antibacterial activity against Streptococcus pyogenes isolate L49 by broth microdilution method; assay type: functional
[13] = test system: Staphylococcus aureus; test: Antibacterial activity against methicillin-resistant Staphylococcus aureus isolate L1400 by broth microdilution method; assay type: functional
[14] = test system: Staphylococcus aureus; test: Antibacterial activity against methicillin-sensitive Staphylococcus aureus ATCC 29213 by broth microdilution method; assay type: functional
[15] = test system: Enterococcus faecium; test: Antibacterial activity against vancomycin-sensitive Enterococcus faecium isolate L568 by broth microdilution method; assay type: functional
[16] = test system: Staphylococcus aureus; test: Antibacterial activity against glycopeptide-intermediate,methicillin-resistant Staphylococcus aureus isolate L3797 by broth microdilution method; assay type: functional
[17] = cells; conditions: Homo sapiens, HMEC-1, 72 h
Description: Cytotoxicity against human HMEC1 cells after 72 hrs by MTT assay

[18] = test system: Candida albicans; test: Antifungal activity against Candida albicans; assay type: functional, organism-based

Structure (SMILES)	MIC [1] [µg/mL]	MIC [2] [µg/mL]	MIC [3] [µg/mL]	MIC [4] [µg/mL]	MIC [5] [µg/mL]	MIC [6] [µg/mL]	IC50 [7] [µM]	MIC [8] [µg/mL]	MIC [9] [µg/mL]	MIC [10] [µg/mL]	MIC [11] [µg/mL]	MIC [12] [µg/mL]	MIC [13] [µg/mL]	MIC [14] [µg/mL]	MIC [15] [µg/mL]	MIC [16] [µg/mL]	IC50 [17] [µM]	Activity [18]
CC[C@H]1C[C@@]23OC(=O)C(=C2O)C(=O)[C@]2(CC)[C@@H](C=C[C@@H]4[C@@H](O[C@H]5C[C@@H](O)[C@H](NC(=O)c6[nH]c(Cl)c(Cl)c6Cl)[C@@H](C)O5)[C@@H](C)CC[C@@H]42)CCCC/C=C/[C@@]3(C)C=C1C(=O)O	> 128	2 (≈ 2.28 µM)	4 (≈ 4.55 µM)	8 (≈ 9.11 µM)	8 (≈ 9.11 µM)	2 (≈ 2.28 µM)	47	2 (≈ 2.28 µM)	4 (≈ 4.55 µM)	4 (≈ 4.55 µM)	2 (≈ 2.28 µM)	8 (≈ 9.11 µM)	4 (≈ 4.55 µM)	2 (≈ 2.28 µM)	16 (≈ 18.2 µM)	4 (≈ 4.55 µM)	2	
COc1cccc2c1C(=O)c1c(O)c3c(c(O)c1C2=O)C[C@@](O)(C(=O)CO)C[C@@H]3O[C@H]1C[C@H](N)[C@H](O)[C@H](C)O1 [DOXORUBICIN]							4.6										0.06	
CN[C@H](CC(C)C)C(=O)N[C@H]1C(=O)N[C@@H](CC(N)=O)C(=O)N[C@H]2C(=O)N[C@H]3C(=O)N[C@H](C(=O)N[C@H](C(=O)O)c4cc(O)cc(O)c4-c4cc3ccc4O)[C@H](O)c3ccc(c(Cl)c3)Oc3cc2cc(c3O[C@@H]2O[C@H](CO)[C@@H](O)[C@H](O)[C@H]2O[C@H]2C[C@](C)(N)[C@H](O)[C@H](C)O2)Oc2ccc(cc2Cl)[C@H]1O [VANCOMYCIN]	4 (≈ 2.76 µM)		8 (≈ 5.52 µM)	0.5 (≈ 0.345 µM)	> 128			1 (≈ 0.69 µM)	2 (≈ 1.38 µM)	1 (≈ 0.69 µM)	> 128	1 (≈ 0.69 µM)				> 128		
CC[C@H]1C[C@@]23OC(=O)C(=C2O)C(=O)[C@]2(CC)[C@@H](C=C[C@@H]4[C@@H](O[C@H]5C[C@@H](O)[C@H](NC(=O)c6[nH]ccc6Br)[C@@H](C)O5)[C@@H](C)CC[C@@H]42)CCCC/C=C/[C@@]3(C)C=C1C(=O)O				8 (≈ 9.37 µM)	64 (≈ 75 µM)		143	16 (≈ 18.7 µM)			16 (≈ 18.7 µM)	4 (≈ 4.68 µM)	4 (≈ 4.68 µM)	2 (≈ 2.34 µM)	64 (≈ 75 µM)		43	
CC[C@H]1C[C@@]23OC(=O)C(=C2O)C(=O)[C@]2(CC)[C@@H](C=C[C@@H]4[C@@H](O[C@H]5C[C@@H](O)[C@H](NC(=O)c6[nH]c(Cl)cc6Cl)[C@@H](C)O5)[C@@H](C)CC[C@@H]42)CCCC/C=C/[C@@]3(C)C=C1C(=O)O	64 (≈ 75.8 µM)	0.5 (≈ 0.593 µM)	1 (≈ 1.19 µM)	4 (≈ 4.74 µM)	4 (≈ 4.74 µM)	0.5 (≈ 0.593 µM)	50	0.5 (≈ 0.593 µM)	1 (≈ 1.19 µM)	1 (≈ 1.19 µM)	0.5 (≈ 0.593 µM)	2 (≈ 2.37 µM)	1 (≈ 1.19 µM)	0.25 (≈ 0.296 µM)	8 (≈ 9.48 µM)	0.5 (≈ 0.593 µM)	9	inactive
CC[C@H]1C[C@@]23OC(=O)C(=C2O)C(=O)[C@]2(CC)[C@@H](C=C[C@@H]4[C@@H](O[C@H]5C[C@@H](O)[C@H](NC(=O)c6[nH]cc(Br)c6Br)[C@@H](C)O5)[C@@H](C)CC[C@@H]42)CCCC/C=C/[C@@]3(C)C=C1C(=O)O				8 (≈ 8.58 µM)	32 (≈ 34.3 µM)		109	32 (≈ 34.3 µM)			16 (≈ 17.2 µM)	1 (≈ 1.07 µM)	16 (≈ 17.2 µM)	8 (≈ 8.58 µM)	32 (≈ 34.3 µM)		3	
